# Measurements as given in ChEMBL document CHEMBL1135603, “Modeling of binding modes and inhibition mechanism of some natural ligands of farnesyl transferase using molecular docking” (J Med Chem, 2002).
# pIC50: −log10 of the molar value.
# How the values were obtained:
# [1] = Partition coefficient (logP); format: physicochemical; conditions: octanol/water
# [2] = target: Protein farnesyltransferase (Rattus norvegicus, UniProt Q02293+Q04631); experiment: Inhibition of Farnesyltransferase; format: protein-complex assay
Structure (SMILES),logP [1],pIC50 [2]
CC(=O)O[C@H]1CC[C@]2(C)[C@H](CC[C@@]3(C)[C@H]2C=C(C)[C@@]2(C)C(O)=C(C)C(=O)[C@]23C(=O)O)C1(C)C [ANDRASTATIN C],2.7,4.88
CC(=O)O[C@H]1CC[C@]2(CO)[C@H](CC[C@@]3(C)[C@H]2C=C(C)[C@@]2(C)C(O)=C(C)C(=O)[C@]23C(=O)O)C1(C)C [ANDRASTATIN B],1.6,4.33
CC(=O)O[C@H]1CC[C@]2(C=O)[C@H](CC[C@@]3(C)[C@H]2C=C(C)[C@@]2(C)C(O)=C(C)C(=O)[C@]23C(=O)O)C1(C)C [ANDRASTATIN A],1.7,4.60
COC(=O)C1=CC(CO)=COc2oc3cccc(O)c3c(=O)c21 [FUSIDIENOL],1.8,6.52

# Second part, the compound after the results:
logP [1],pIC50 [2],Structure (SMILES)
2,7.92,C=C(CC[C@]12O[C@H](C(=O)O)[C@@](O)(C(=O)O)[C@](C(=O)O)(O1)[C@H](OC(=O)/C=C/[C@@H](C)C[C@@H](C)CC)[C@H]2O)[C@@H](OC(C)=O)[C@H](C)Cc1ccccc1 [ZARAGOZIC ACIDS A]
1.3,–,CC(C)=CCC/C(C)=C/CC/C(C)=C/CC/C(=C\C(=O)O)C(=O)O [SCHIZOSTATIN E]
1.4,3.52,CC(C)=CCC/C(C)=C/CC/C(C)=C/CC/C(=C/C(=O)O)C(=O)O [SCHIZOSTATIN Z]
–,6.72,CC(C)CCCC(C)C1CCC2C3CCC(=O)[C@](C)(C[C@@H](CC(=O)O)C(=O)O)C3CC[C@]12C (some centres not stated)
–,6.05,CC(C)CCCC(C)C1CCC2C3C(CC[C@]12C)[C@@](C)(CCC(=O)O)C(=O)C[C@@H]3C (some centres not stated)
1.8,6.44,C=C1C(=O)O[C@@H]2[C@H]3C[C@@]4(C)C=CC3(CC43C(=O)O[C@@H]4C5C(C)=CC(=O)C5=C(C)C[C@H](CC(=O)CC(C)C)C43)[C@](C)(O)CC[C@@H]12 (some centres not stated) [ARTEMINOLIDE]
